From patent publication US20230218661A1, “ISOTONIC OR HYPERTONIC SALT-BASED COMPOSITIONS, TREATMENTS, DEVICES, AND ARTICLES FOR DELIVERY OF SAME TO LARYNX” (SENSORY CLOUD, INC., priority 2022, published 2023)

Test system: post viral cough
Assay: Informal single-subject study of post viral cough exacerbation
Details: self-administration, subjective

For COc1ccc2c3c1O[C@H]1[C@@H](O)C=C[C@H]4[C@@H](C2)N(C)CC[C@@]341 [codeine], the subject-reported relief was “dramatic relief”.
